Where two headings read alike, the source gives them in different places.
Key:
[1] = system: human venous whole blood, CD8 positive population (pERK); assay: DGK human whole blood pERK assay; assay type: cell-based
Experimental: Assay 11: DGK Human Whole Blood pERK Assay
Human whole blood ERK phosphorylation assay was performed with human venous whole blood obtained from healthy donors (drawn with Heparin as anti-coagulant). […] Heparinized human whole blood was added to the compound plate at 9 μL per well and incubated for one hour at 37° C. in a humidified 95%, air/5% CO2 incubator. After one hour of compound incubation, 1 μL of human anti-CD3 antibody (in-house) in the presence of cross-linking antibody goat anti-mouse IgG (4 μg/mL) was added to the well at 1 μg/mL final concentration for stimulation of pathway and additionally incubated for 15 minutes at 37° C. […] Samples analyzed using the Intellicyt® iQue Screener PLUS. The pERK activation was quantitated by the percentage of pERK positive population within CD8 positive population.

human DGKζ = human DGKζ (Homo sapiens (Human), UniProt Q13574); assay: biochemical; assay type: biochemical; settings: liposome (LIPGLO) assay
Chain of human DGKζ (Q13574 whole entry, looked up): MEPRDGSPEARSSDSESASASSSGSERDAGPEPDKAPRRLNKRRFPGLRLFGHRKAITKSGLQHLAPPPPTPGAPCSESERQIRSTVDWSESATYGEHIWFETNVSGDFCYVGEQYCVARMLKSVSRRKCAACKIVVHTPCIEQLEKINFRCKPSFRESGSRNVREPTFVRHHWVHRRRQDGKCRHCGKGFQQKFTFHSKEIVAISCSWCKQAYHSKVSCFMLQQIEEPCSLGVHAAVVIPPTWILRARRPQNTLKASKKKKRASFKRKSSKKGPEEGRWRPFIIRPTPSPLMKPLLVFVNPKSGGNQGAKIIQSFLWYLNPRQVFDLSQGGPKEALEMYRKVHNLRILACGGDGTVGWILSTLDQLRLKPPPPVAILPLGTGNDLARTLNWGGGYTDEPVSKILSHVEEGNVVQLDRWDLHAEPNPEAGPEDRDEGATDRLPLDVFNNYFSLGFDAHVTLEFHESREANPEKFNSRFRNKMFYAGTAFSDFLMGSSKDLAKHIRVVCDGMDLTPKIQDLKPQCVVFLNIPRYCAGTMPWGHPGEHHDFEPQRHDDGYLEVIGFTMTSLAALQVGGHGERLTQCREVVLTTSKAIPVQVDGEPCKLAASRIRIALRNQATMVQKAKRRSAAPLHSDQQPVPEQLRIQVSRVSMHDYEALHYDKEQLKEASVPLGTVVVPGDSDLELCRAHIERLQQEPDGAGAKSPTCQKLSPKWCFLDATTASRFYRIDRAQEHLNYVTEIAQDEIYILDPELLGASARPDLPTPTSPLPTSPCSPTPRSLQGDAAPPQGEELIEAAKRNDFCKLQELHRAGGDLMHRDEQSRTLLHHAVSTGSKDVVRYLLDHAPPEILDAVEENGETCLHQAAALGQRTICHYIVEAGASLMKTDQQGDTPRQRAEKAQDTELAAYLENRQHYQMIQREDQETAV

[2] = system: Human venous whole blood (IFN-γ); assay: Human whole blood IFN-γ assay; assay type: cell-based
Experimental: Assay 10: Human Whole Blood IFN-γ Assay
Human venous whole blood (22.5 μL per well), obtained from healthy donors, was pre-treated with compounds for one hour at 37° C. in a humidified 95% air/5% CO2 incubator. The blood was stimulated with 2.5 μL anti-human CD3 and anti-CD28 mAb at a final concentration of 1 μg/mL each for 24 hours at 37° C. IFN-γ in the supernatants was measured using AlphLISA kit (Cat #AL217).

[3] = read-out: DGK HWB, human whole blood pERK
[4] = Homo sapiens, CD8 positive, human whole blood pERK, read-out: DGK HWB
[5] = human whole blood, CD8 positive population, anti-CD3 stimulation, top concentration 20 μM, read-out: DGK HWB (human whole blood pERK)
[6] = human whole blood pERK, read-out: DGK HWB
[7] = Homo sapiens, CD8 positive, read-out: DGK HWB, human whole blood pERK

## C[C@@H]1CN(c2cc(=O)n(C)c3ccc(C#N)nc23)[C@@H](C)CC1N(C)Cc1ccc(F)cc1 (single isomer, unassigned) [Example 332]
[1]; [3]
  EC50: 16000 nM

## CCO[C@H]1CN(c2cc(=O)n(C)c3ccc(C#N)nc23)CC[C@@H]1Oc1ccc(S(C)(=O)=O)cc1 [Example 354, 8-((3S,4S)-3-ethoxy-4-(4-(methylsulfonyl)phenoxy)piperidin-1-yl)-5-methyl-6-oxo-5,6-dihydro-1,5-naphthyridine-2-carbonitrile]
[1]; [4]
  EC50: 20000 nM

## CC[C@@H]1CN(c2cc(=O)n(C)c3ccc(C#N)nc23)[C@H](C)C[C@H]1Oc1cccc(C(F)(F)F)c1 [Example 310, 8-((2R,4R,5R)-5-ethyl-2-methyl-4-(3-(trifluoromethyl)phenoxy)piperidin-1-yl)-5-methyl-6-oxo-5,6-dihydro-1,5-naphthyridine-2-carbonitrile]
[1]; [4]
  EC50: 9900 nM

## CCO[C@H]1CN(c2cc(=O)n(C)c3ccc(C#N)nc23)CC[C@@H]1Oc1ccc(OC(C)C)cn1 (relative stereo) [Example 397, trans-8-(4-((5-Isopropoxypyridin-2-yl)oxy)-3-ethoxypiperidin-1-yl)-5-methyl-6-oxo-5,6-dihydro-1,5-naphthyridine-2-carbonitrile]
[1]; [5]
  EC50: 140 nM

## CC1CN(c2c(C#N)c(=O)n(C)c3ccc(C#N)nc23)CCC1N(C)C(=O)c1ccc(C(F)(F)F)cc1 (single isomer, unassigned) [Example 293, N-(1-(3,6-dicyano-1-methyl-2-oxo-1,2-dihydro-1,5-naphthyridin-4-yl)-3-methylpiperidin-4-yl)-N-methyl-4-(trifluoromethyl)benzamide]
[1]; [3]
  EC50: 20000 nM

## CCO[C@H]1CN(c2cc(=O)n(C)c3ccc(C#N)nc23)CC[C@@H]1Oc1ccc(C(F)(F)F)cc1 [Example 343, 8-((3S,4S)-3-ethoxy-4-(4-(trifluoromethyl)phenoxy)piperidin-1-yl)-5-methyl-6-oxo-5,6-dihydro-1,5-naphthyridine-2-carbonitrile]
[1]; [6]
  EC50: 320 nM

## CCO[C@H]1CN(c2cc(=O)n(C)c3ccc(C#N)nc23)CC[C@H]1Oc1cccc(C(F)(F)F)c1 (relative stereo) [Example 369, cis-8-(3-Ethoxy-4-(3-(trifluoromethyl)phenoxy)piperidin-1-yl)-5-methyl-6-oxo-5,6-dihydro-1,5-naphthyridine-2-carbonitrile]
[1]; [4]
  EC50: 620 nM

## CCO[C@H]1CN(c2cc(=O)n(C)c3ccc(C#N)nc23)CC[C@@H]1Oc1cccc(C(F)(F)F)n1 (relative stereo) [Example 363, trans-8-(3-Ethoxy-4-((6-(trifluoromethyl)pyridin-2-yl)oxy)piperidin-1-yl)-5-methyl-6-oxo-5,6-dihydro-1,5-naphthyridine-2-carbonitrile]
[1]; [6]
  EC50: 1100 nM

## CC[C@@H]1CN(c2nc(=O)n(C)c3ccc(C#N)nc23)[C@H](C)C[C@H]1Oc1ccc(OC(C)C)cn1 [Example 303, 4-((2R,4R,5R)-5-ethyl-4-((5-isopropoxypyridin-2-yl)oxy)-2-methylpiperidin-1-yl)-1-methyl-2-oxo-1,2-dihydropyrido[3,2-d]pyrimidine-6-carbonitrile]
[1]; [7]
  EC50: 380 nM

## CC1CN(c2cc(=O)n(C)c3ccc(C#N)nc23)CCC1N(C)Cc1ccc(F)cc1 (single isomer, unassigned) [Example 327, -(4-((4-fluorobenzyl)(methyl)amino)-3-methylpiperidin-1-yl)-5-methyl-6-oxo-5,6-dihydro-1,5-naphthyridine-2-carbonitrile]
[1]; [4]
  EC50: 1900 nM

## CC[C@@H]1CN(c2cc(=O)n(C)c3ccc(C#N)nc23)[C@@H](C)C[C@H]1Oc1ccc(OC(C)C)cn1 [Example 296, 8-((2S,4R,5R)-5-ethyl-4-((5-isopropoxypyridin-2-yl)oxy)-2-methylpiperidin-1-yl)-5-methyl-6-oxo-5,6-dihydro-1,5-naphthyridine-2-carbonitrile]
[1]; [7]
  EC50: 13000 nM

## C[C@@H]1CN(c2cc(=O)n(C)c3ccc(C#N)nc23)[C@@H](C)CC1N(C)Cc1ccc(F)cc1 (single isomer, unassigned) [Example 331]
[1]; [7]
  EC50: 11000 nM

## CCO[C@H]1CN(c2cc(=O)n(C)c3ccc(C#N)nc23)CC[C@@H]1Oc1ccc(C(F)(F)F)cn1 (relative stereo) [Example 367, trans-8-(3-Ethoxy-4-((5-(trifluoromethyl)pyridin-2-yl)oxy)piperidin-1-yl)-5-methyl-6-oxo-5,6-dihydro-1,5-naphthyridine-2-carbonitrile]
[1]; [7]
  EC50: 640 nM

## CC[C@@H]1CN(c2cc(=O)n(C)c3ccc(C#N)nc23)[C@H](C)C[C@H]1Oc1ccc(OC(C)C)cn1 [Example 297, 8-((2R,4R,5R)-5-ethyl-4-((5-isopropoxypyridin-2-yl)oxy)-2-methylpiperidin-1-yl)-5-methyl-6-oxo-5,6-dihydro-1,5-naphthyridine-2-carbonitrile]
[1]; [7]
  EC50: 680 nM

## CC1CN(c2c(C#N)c(=O)n(C)c3ccc(C#N)nc23)CCC1N(C)C1CCC(F)(F)CC1 (single isomer, unassigned) [Example 330]
[1]; [6]
  EC50: 20000 nM

## CCO[C@H]1CN(c2cc(=O)n(C)c3ccc(C#N)nc23)CC[C@@H]1Oc1ccc(Cl)c(F)c1 [Example 358, 8-((3S,4S)-4-(4-chloro-3-fluorophenoxy)-3-ethoxypiperidin-1-yl)-5-methyl-6-oxo-5,6-dihydro-1,5-naphthyridine-2-carbonitrile]
[1]; [3]
  EC50: 7000 nM

## CCO[C@H]1CN(c2cc(=O)n(C)c3ccc(C#N)nc23)CC[C@H]1Oc1ccc(OC(C)C)cn1 (relative stereo) [Example 372, cis-8-(3-Ethoxy-4-((5-isopropoxypyridin-2-yl)oxy)piperidin-1-yl)-5-methyl-6-oxo-5,6-dihydro-1,5-naphthyridine-2-carbonitrile]
[1]; [6]
  EC50: 18000 nM

## Cn1c(=O)cc(N2CC[C@@H](Oc3cccc(C(F)(F)F)c3)[C@H](OCC3CC3)C2)c2nc(C#N)ccc21 [Example 388, 8-((3R,4R)-3-(cyclopropylmethoxy)-4-(3-(trifluoromethyl)phenoxy)piperidin-1-yl)-5-methyl-6-oxo-5,6-dihydro-1,5-naphthyridine-2-carbonitrile]
[1]; [5]
  EC50: 20000 nM

## CCO[C@H]1CN(c2cc(=O)n(C)c3ccc(C#N)nc23)CC[C@@H]1Oc1ccnc(C(F)(F)F)c1 [Example 359, 8-((3S,4S)-3-ethoxy-4-((2-(trifluoromethyl)pyridin-4-yl)oxy)piperidin-1-yl)-5-methyl-6-oxo-5,6-dihydro-1,5-naphthyridine-2-carbonitrile]
[1]; [3]
  EC50: 20000 nM

## CC[C@@H]1CN(c2cc(=O)n(C)c3ccc(C#N)nc23)CC[C@H]1Oc1ccc(OC(C)C)cn1 [Example 192, 8-((3R,4R)-3-ethyl-4-((5-isopropoxypyridin-2-yl)oxy)piperidin-1-yl)-5-methyl-6-oxo-5,6-dihydro-1,5-naphthyridine-2-carbonitrile]
Human DGKζ; Table A, read-out: DGKζ
  IC50: 420 nM
[2]; Homo sapiens, human whole blood IFN-γ, read-out: INFg Whole Blood
  EC50: 290 nM

## CC[C@@H]1CN(c2cc(=O)n(C)c3ccc(C#N)nc23)CC[C@H]1Oc1ccc(OC(C)C)cc1 [Example 161, 8-((3R,4R)-3-ethyl-4-(4-isopropoxyphenoxy)piperidin-1-yl)-5-methyl-6-oxo-5,6-dihydro-1,5-naphthyridine-2-carbonitrile]
Human DGKζ; read-out: DGKζ LIPGLO IC50
  IC50: 540 nM
[2]; Homo sapiens, 24 h, human whole blood, anti-CD3 plus anti-CD28, 24 hours, read-out: INFg Whole Blood Normalized Agonist EC50
  EC50: 2400 nM

## CC[C@@H]1CN(c2cc(=O)n(C)c3ccc(C#N)nc23)CC[C@@H]1Oc1ccc(OC(C)C)cn1 [Example 203, 8-((3R,4S)-3-ethyl-4-((5-isopropoxypyridin-2-yl)oxy)piperidin-1-yl)-5-methyl-6-oxo-5,6-dihydro-1,5-naphthyridine-2-carbonitrile]
Human DGKζ; Table A, read-out: DGKζ
  IC50: 230 nM

## CC[C@@H]1CN(c2cc(=O)n(C)c3ccc(C#N)nc23)CC[C@@H]1Oc1ccc(OC(C)C)cn1 [Example 204, 8-((3R,4S)-3-ethyl-4-((5-isopropoxypyridin-2-yl)oxy)piperidin-1-yl)-5-methyl-6-oxo-5,6-dihydro-1,5-naphthyridine-2-carbonitrile]
Human DGKζ; Table A, read-out: DGKζ
  IC50: 330 nM

## Cn1c(=O)nc(N2CC[C@@H](Oc3cccc(C(F)(F)F)c3)[C@H](O)C2)c2nc(C#N)ccc21 (single isomer, unassigned) [Example 273, (+/−)-trans-4-(3-hydroxy-4-(3-(trifluoromethyl)phenoxy)piperidin-1-yl)-1-methyl-2-oxo-1,2-dihydropyrido[3,2-d]pyrimidine-6-carbonitrile]
Human DGKζ; Table A, read-out: DGKζ
  IC50: 4700 nM

## C[C@@H]1CN(c2cc(=O)n(C)c3ccc(C#N)nc23)CC[C@H]1Oc1ccc(C(F)(F)F)cc1 (single isomer, unassigned) [Example 98]
[2]; human whole blood, anti-CD3 plus anti-CD28, 24 hours, read-out: INFg Whole Blood Normalized Agonist EC50
  EC50: 1200 nM

## C[C@@H]1CN(c2cc(=O)n(C)c3ccc(C#N)nc23)CC[C@@H]1Oc1ccc(C(F)(F)F)cn1 (single isomer, unassigned) [Example 227]
[2]; human whole blood IFN-γ, read-out: INFg Whole Blood
  EC50: 4200 nM

Reference: patent US11964973B2 (priority 2019, dated 2024)
